# Data reported in patent US5952307A, “Basic α-aminoalkylphosphonate derivatives” (priority 1997, dated 1999).
# Experiments:
# Format in all cases: biochemical
# mast cell tryptase = mast cell tryptase (Homo sapiens, UniProt Q15661); experiment: Inactivation rate of mast cell tryptase, incubation method; details: for kobsd /[I] mast cell tryptase: Table I, 0.1M Hepes, 10% glycerol, 10 mM heparin, pH 7.5, 25° C., 7.1% DMSO, NI = no inhibition after 25 min of incubation; for kobs /[I] mast cell tryptase: Table II, 0.07 μM tryptase, 20-66 μM inhibitor, Hepes pH 7.5, heparin, 9% glycerol, 8% DMSO, 25° C., NI = no inhibition
# Procedure: (§1) Inactivation rates of serine proteases by aryl diesters of peptidyl derivatives of α-aminoalkylphosphonates were measured by the incubation method. An aliquot of inhibitor (25 or 50 μl) in Me2 SO was added to a buffered enzyme solution (0.01-2.3 μM) to initiate the inactivation. Aliquots (50 μl) were withdrawn at various intervals and the residual enzymatic activity was measured. Me2 SO concentration in the reaction mixture was 8-12% (v/v). A 0.1 M HEPES, 0.01 M CaCl2, pH 7.5 buffer was utilized for trypsin and trypsin-like enzymes. A 0.1 M HEPES, 0.5 M NaCl, pH 7.5, was utilized for the other serine proteases. Peptide thioesters or peptide nitroanilides with the appropriate sequences were used as substrates for various serine proteases. All peptide thioesters hydrolysis rates were measured with the assay mixture containing 4,4'-dithiodipyridine {ε324 =19800 M^-1 cm^-1; Grasetti & Murray, Arch. Biochem. Biophys. 1967, 119, 41-48}. Peptide 4-nitroanilide hydrolysis was measured at 410 nm {ε410 =8800 M^-1 cm^-1; Erlanger et al., Arch. Biochem. Biophys. 1961, 95, 271-278}. First order inactivation rate constants (Kobs) were obtained from plots of In vt /vo vs time, and the correlation coefficients were greater then 0.98.
# (§2) ^a Inhibition constants were measured in 0.1M Hepes, 0.01M CaCl2
# (§3) pH 7.5 for trypsin, granzymes A, and K, and in 0.1M Hepes, 10% glycerol,
# (§4) 10 mM heparin, pH 7.5 for mast cell tryptase, and at 25° C. The
# (§5) reaction mixtures contained 2% DMSO for trypsin, 7.6% for granzyme A, and
# (§6) 7.1% for granzyme K and tryptase. The substrate was Z--Arg--SBzl for
# (§7) granzymes and trypsin, and Z--Arg--SBzl or Z--Lys--SBzl for tryptase in
# (§8) the presence of DTNB. The inhibitor # concentration ranged from 0.001 to
# (§9) ^b NI, no inhibition after 25 min of incubation with enzyme.
# (§10) ^a Enzyme was incubated with the inhibitor in 250 μL of the proper
# (§11) containing 428 mM NaCl and 8% DMSO; 0.07 μM tryptase, 20-66 μM
# inhibitor # in an mM Hepes, pH 7.5 buffer containing 8 mM heparin, 166 m
# NaCl, 0.8 mM Mes, 9% glycerol and 8% DMSO; 0.42 μM factor Xa, 66 μM
# (§12) DMSO. Aliquots of 25 μL were withdrawn at various intervals and the
# (§13) residual enzymatic activity was measured as described in experimental
# (§14) section. The kobs values were calculated from pseudofirst-order
# (§15) ^a Enzyme (0.06-0.5 μM) was incubated with the inhibitor (0.25-42
# (§16) μM) in 250 μL of the proper buffer containing 9% DMSO at 25°
# (§17) C. The final inhibition reaction mixtures are given in the footnote to
# (§18) Table 1. Aliquots of 25 μL were withdrawn at various intervals and the […]
# human thrombin = target: T1, human thrombin (Homo sapiens, UniProt P00734); details: Table II; 0.07 μM thrombin, 0.25-42 μM inhibitor, 80 mM Hepes pH 7.5, 428 mM NaCl, 8% DMSO, 25° C.; NI = no inhibition
# T1 construct: bovine trypsin, human thrombin
# Procedure: as §1, with “271-278}.” for “271-278}. First order inactivation rate constants (Kobs) were obtained from plots of In vt /vo vs time, and the correlation coefficients were greater then 0.98.”
# as §10
# (§19) buffer at 25° C. Specifically, the inhibition reation mixtures wer
# (§20) Hepes, pH 7.5 buffer containing 1 mM CaCl2 and 8% DMSO; 0.07 μM
# thrombin, 0.25-42 μM inhibitor in an 80 mM Hepes, pH 7.5 buffer
# as §11, §12, §13, §14, §15, §16, §17, §18
# rat granzyme K = target: T2, rat granzyme K (Rattus norvegicus, UniProt P49864); experiment: Inactivation rate of rat granzyme K, incubation method; details: Table I; 0.1M Hepes, 0.01M CaCl2 pH 7.5, 25° C., 7.1% DMSO, substrate Z--Arg--SBzl; NI = no inhibition after 25 min of incubation
# T2 sequence (P49864 26-258): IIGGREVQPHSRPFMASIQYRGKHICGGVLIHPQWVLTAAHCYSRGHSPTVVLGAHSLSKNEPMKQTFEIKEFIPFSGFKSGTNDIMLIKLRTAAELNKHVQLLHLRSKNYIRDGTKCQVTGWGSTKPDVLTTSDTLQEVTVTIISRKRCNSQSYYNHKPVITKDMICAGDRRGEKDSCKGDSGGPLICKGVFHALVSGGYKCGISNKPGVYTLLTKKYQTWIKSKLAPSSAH
# Procedure: as §1, §2, §3, §4, §5, §6, §7, §8, §9
# human granzyme A = target: T3, human granzyme A (Homo sapiens, UniProt P12544); experiment: Inactivation rate of human granzyme A, incubation method; details: Table I; 0.1M Hepes, 0.01M CaCl2 pH 7.5, 25° C., 7.6% DMSO, substrate Z--Arg--SBzl
# T3 sequence (P12544 29-262): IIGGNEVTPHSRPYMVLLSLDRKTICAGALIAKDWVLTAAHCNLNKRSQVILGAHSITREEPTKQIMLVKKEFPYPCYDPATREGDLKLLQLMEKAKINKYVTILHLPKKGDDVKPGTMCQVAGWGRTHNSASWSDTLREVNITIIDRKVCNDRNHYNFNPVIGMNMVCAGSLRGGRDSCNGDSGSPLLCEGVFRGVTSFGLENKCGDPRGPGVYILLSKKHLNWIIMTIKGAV
# Procedure: as §1, §2, §3, §4, §5, §6, §7, §8, §9
# bovine trypsin = target: T4, bovine trypsin (Bos taurus, UniProt P00760); experiment: Inactivation rate of bovine trypsin, incubation method; details: for kobsd /[I] bovine trypsin: Table I, 0.1M Hepes, 0.01M CaCl2 pH 7.5, 25° C., 2% DMSO, substrate Z--Arg--SBzl, NI = no inhibition after 25 min; for kobs /[I] bovine trypsin: Table II, 0.13 μM trypsin, 0.25-42 μM inhibitor, 80 mM Hepes pH 7.5, 1 mM CaCl2, 8% DMSO, 25° C., NI = no inhibition
# T4 sequence (P00760 24-246): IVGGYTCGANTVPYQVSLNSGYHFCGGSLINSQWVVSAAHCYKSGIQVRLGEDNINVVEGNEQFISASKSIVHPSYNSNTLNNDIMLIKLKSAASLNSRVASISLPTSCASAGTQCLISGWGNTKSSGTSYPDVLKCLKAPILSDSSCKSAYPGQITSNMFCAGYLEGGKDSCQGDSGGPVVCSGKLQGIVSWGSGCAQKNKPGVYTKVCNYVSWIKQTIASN
# Procedure: as §1, §2, §3, §4, §5, §6, §7, §8, §9, §10, §19
# composed of: 0.13 μM trypsin, 0.25-42 μM inhibitor in an 80 mM
# as §20, §12, §13, §14, §15, §16, §17, §18
# mast cell tryptase, sequence (Q15661 31-275): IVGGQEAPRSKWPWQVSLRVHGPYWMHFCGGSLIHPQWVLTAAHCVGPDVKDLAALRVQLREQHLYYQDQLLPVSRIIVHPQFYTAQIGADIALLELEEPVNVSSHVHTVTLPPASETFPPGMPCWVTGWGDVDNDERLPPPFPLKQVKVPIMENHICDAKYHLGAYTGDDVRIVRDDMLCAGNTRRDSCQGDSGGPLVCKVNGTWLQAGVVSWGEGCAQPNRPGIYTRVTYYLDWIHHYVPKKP
SMILES,kobsd /[I] mast cell tryptase (mast cell tryptase) [M⁻¹ s⁻¹],kobs /[I] human thrombin (human thrombin),kobsd /[I] rat granzyme K (rat granzyme K) [M⁻¹ s⁻¹],kobsd /[I] human granzyme A (human granzyme A) [M⁻¹ s⁻¹],kobsd /[I] bovine trypsin (bovine trypsin) [M⁻¹ s⁻¹],kobs /[I] bovine trypsin (bovine trypsin),kobs /[I] mast cell tryptase (mast cell tryptase) [M⁻¹ s⁻¹]
"CC(C)(C)OC(=O)N[C@H](Cc1ccccc1)C(=O)N1CCC[C@H]1C(=O)NC(c1ccc(C(=N)N)cc1)P(=O)(Oc1ccccc1)Oc1ccccc1.Cl (stereo partly drawn) [Boc--D--Phe--Pro-(4-AmPhGly)^P (OPh)2, Diphenyl N-(Boc-D-Phe-Pro)amino(4-amidinophenyl)methanephosphonate hydrochloride]",0.4,"11,000 M^-1 s^-1",56 ± 2,170,130,"2,200 M^-1 s^-1",–
CC(NC(=O)C(Cc1ccccc1)NC(=O)OCc1ccccc1)C(=O)NC(c1ccc(C(=N)N)cc1)P(=O)(Oc1ccccc1)Oc1ccccc1 (mixture of isomers) [Cbz--Phe--Ala-(4-AmPhGly)^P (OPh)2],4,"1,150 ± 88 M^-1 s^-1",4.2 ± 0.3,1770 ± 13,3010 ± 318,"3,010 ± 318 M^-1 s^-1",4.0 ± 0.3
"Cl.N=C(N)c1ccc(C(NC(=O)[C@@H]2CCCN2C(=O)OCc2ccccc2)P(=O)(Oc2ccccc2)Oc2ccccc2)cc1 (stereo partly shown) [Cbz--Pro-(4-AmPhGly)^P (OPh)2, Diphenyl N-(N-benzyloxycarbonylprolyl)amino(4-amidinophenyl)methanephosphonate hydrochloride]",1.2,640 ± 86 M⁻¹ s⁻¹,34 ± 4,790 ± 17,910 ± 81,910 ± 81 M⁻¹ s⁻¹,1
Cl.N=C(N)c1ccc(C(NC(=O)[C@@H]2CCCN2C(=O)c2ccccc2Oc2ccccc2)P(=O)(Oc2ccccc2)Oc2ccccc2)cc1 (stereo partly shown) [Diphenyl N-(N-(2-Phenoxybenzoylprolyl))amino(4-amidinophenyl)methanephosphonate Hydrochloride],0.9,"42,400 ± 4190 M^-1 s^-1",60 ± 5,610 ± 88,7760 ± 310,"7,760 ± 310 M^-1 s^-1",0.9
CC(NC(=O)C(CC(=O)O)NC(=O)OCc1ccccc1)C(=O)NC(c1ccc(C(=N)N)cc1)P(=O)(Oc1ccccc1)Oc1ccccc1 (mixture of isomers) [Cbz--Asp--Ala-(4-AmPhGly)^P (OPh)2],0.7,110 ± 12 M⁻¹ s⁻¹,6,240 ± 5,2550 ± 145,"2,550 ± 145 M^-1 s^-1",–
CC(C)C(NC(=O)OCc1ccccc1)C(=O)NC(c1ccc(C(=N)N)cc1)P(=O)(Oc1ccccc1)Oc1ccccc1 (mixture of isomers) [Cbz--Val-(4-AmPhGly)^P (OPh)2],21.2 ± 0.2,5.5 ± 0.4 M⁻¹ s⁻¹,0.7 ± 0.04,6.7 ± 0.1,41 ± 3,18 ± 2 M⁻¹ s⁻¹,21.2 ± 0.2
N=C(N)c1ccc(C(NC(=O)C2CCCN2C(=O)CNS(=O)(=O)Cc2ccccc2)P(=O)(Oc2ccccc2)Oc2ccccc2)cc1 (mixture of isomers) [PhCH2 SO2 --Gly--Pro-(4-AmPhGly)^P (OPh)2],2,"17,200 ± 128 M^-1 s^-1",87,3650 ± 180,37060 ± 986,"37,060 ± 986 M^-1 s^-1",2.0 ± 0.1
N=C(N)c1ccc(C(NC(=O)CCC(=O)O)P(=O)(Oc2ccccc2)Oc2ccccc2)cc1 (stereo not shown) [Suc-(4-AmPhGly)^P (OPh)2],0.2,2 M⁻¹ s⁻¹,0.3 ± 0.07,857,45 ± 3,45 ± 3 M⁻¹ s⁻¹,0.2
C[C@H](NC(=O)CCC(=O)O)C(=O)N[C@@H](C)C(=O)NC(c1ccc(C(=N)N)cc1)P(=O)(Oc1ccccc1)Oc1ccccc1 (stereo partly shown) [Suc--Ala--Ala-(4-AmPhGly)^P (OPh)2],0.7,2 M⁻¹ s⁻¹,0.3 ± 0.01,260 ± 15,640 ± 36,640 ± 36 M⁻¹ s⁻¹,0.7
